In assay [1] the target is T1, Polyamine deacetylase HDAC10 (Homo sapiens) (UniProt Q969S8).
T1 sequence (whole entry): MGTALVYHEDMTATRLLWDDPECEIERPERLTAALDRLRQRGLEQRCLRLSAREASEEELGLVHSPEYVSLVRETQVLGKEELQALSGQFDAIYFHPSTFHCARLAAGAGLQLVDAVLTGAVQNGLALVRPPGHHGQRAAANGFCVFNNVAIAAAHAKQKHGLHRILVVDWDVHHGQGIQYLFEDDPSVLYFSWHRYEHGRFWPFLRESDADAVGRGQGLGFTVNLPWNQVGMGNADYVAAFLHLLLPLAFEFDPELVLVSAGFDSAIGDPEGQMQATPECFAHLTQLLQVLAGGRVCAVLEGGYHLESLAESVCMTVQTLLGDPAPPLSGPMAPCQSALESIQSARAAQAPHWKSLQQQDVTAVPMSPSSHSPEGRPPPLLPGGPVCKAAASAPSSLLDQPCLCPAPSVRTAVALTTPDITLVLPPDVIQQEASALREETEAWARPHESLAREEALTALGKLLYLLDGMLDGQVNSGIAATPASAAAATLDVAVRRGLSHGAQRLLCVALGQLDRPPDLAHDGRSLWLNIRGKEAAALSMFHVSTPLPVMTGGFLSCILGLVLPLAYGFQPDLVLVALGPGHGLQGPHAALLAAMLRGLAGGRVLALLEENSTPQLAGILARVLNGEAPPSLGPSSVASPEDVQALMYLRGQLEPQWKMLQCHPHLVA
Put plainly: Inhibition of HDAC10 (unknown origin) assessed as residual activity at 1.52 x 10^-9M (reference value: 101.54%). As to conditions: dose 1.52 10^-9M.

Assay [2] has as its target Histone deacetylase 5 (Homo sapiens) (UniProt Q9UQL6). Put plainly: Inhibition of HDAC5 (unknown origin) assessed as residual activity at 4.57 x 10^-9M (reference value: 100%). The settings on record: dose 4.57 10^-9M.
Assay [3] addresses T2, Histone deacetylase 3 (Homo sapiens, UniProt O15379). Briefly: Inhibition of HDAC3 (unknown origin) using p53 residues 379 to 382 [RHKK(Ac)] as fluorogenic substrate assessed as residual activity at 1.52 x 10^-9M (reference value: 103.08%). As to conditions: dose 1.52 10^-9M.
In another assay the test system is FaDu. Briefly: cells. It is filed as functional, cell-based. As to conditions: Homo sapiens.
Assay [4] has as its target T2, Histone deacetylase 3. Briefly: Inhibition of HDAC3 (unknown origin) using p53 residues 379 to 382 [RHKK(Ac)] as fluorogenic substrate assessed as residual activity at 3.33 x 10^-6M (reference value: 103.08%). The settings on record: dose 3.33 10^-6M.
Assay [5] concerns the target T1, Polyamine deacetylase HDAC10 (Homo sapiens). Put plainly: Inhibition of HDAC10 (unknown origin) assessed as residual activity at 1.1 x 10^-6M (reference value: 101.54%). The settings on record: dose 1.1 10^-6M.
A further assay deals with HL-60. Briefly: Downregulation of HDAC2 protein expression in human HL-60 cells at 0.5 to 1 times IC50 by Western blot analysis. It is filed as functional, cell-based. Background: A western blot detects proteins with antibodies after separation by electrophoresis.
Assay [6] concerns the target T3, Histone deacetylase 1 (Homo sapiens, UniProt Q13547). Briefly: Inhibition of HDAC1 (unknown origin) using p53 residues 379 to 382 [RHKK(Ac)] as fluorogenic substrate assessed as residual activity at 1 x 10^-5M (reference value: 98.06%). The settings on record: dose 1.0 10^-5M.
Assay [7] concerns the target T4, Histone deacetylase 7 (Homo sapiens) (UniProt Q8WUI4).
T4 sequence (whole entry): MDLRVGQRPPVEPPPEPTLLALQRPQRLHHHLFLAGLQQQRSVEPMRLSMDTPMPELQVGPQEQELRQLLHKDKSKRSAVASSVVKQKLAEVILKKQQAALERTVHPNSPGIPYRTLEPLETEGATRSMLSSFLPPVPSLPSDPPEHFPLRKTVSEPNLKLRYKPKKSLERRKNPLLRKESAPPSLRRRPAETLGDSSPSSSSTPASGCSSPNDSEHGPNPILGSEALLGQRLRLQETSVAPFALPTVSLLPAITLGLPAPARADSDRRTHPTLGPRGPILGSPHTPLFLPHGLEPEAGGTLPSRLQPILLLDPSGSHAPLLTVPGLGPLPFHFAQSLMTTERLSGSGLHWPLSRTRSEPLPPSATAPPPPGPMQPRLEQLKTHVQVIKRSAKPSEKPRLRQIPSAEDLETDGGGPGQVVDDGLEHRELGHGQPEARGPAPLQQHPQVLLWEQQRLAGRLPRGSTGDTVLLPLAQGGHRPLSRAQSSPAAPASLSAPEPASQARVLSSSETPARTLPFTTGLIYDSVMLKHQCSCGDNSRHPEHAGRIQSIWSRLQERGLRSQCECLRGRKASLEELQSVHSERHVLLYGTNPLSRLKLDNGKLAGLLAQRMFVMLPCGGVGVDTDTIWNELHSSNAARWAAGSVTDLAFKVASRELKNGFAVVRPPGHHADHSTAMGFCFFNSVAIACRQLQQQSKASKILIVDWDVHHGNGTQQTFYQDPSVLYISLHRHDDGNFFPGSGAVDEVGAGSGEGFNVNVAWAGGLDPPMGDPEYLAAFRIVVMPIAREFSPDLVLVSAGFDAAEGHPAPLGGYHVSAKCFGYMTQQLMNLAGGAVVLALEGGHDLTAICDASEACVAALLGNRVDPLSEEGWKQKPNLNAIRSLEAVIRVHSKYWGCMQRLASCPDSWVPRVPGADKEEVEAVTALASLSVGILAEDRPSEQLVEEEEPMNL
Briefly: Inhibition of HDAC7 (unknown origin) assessed as residual activity at 1.52 x 10^-9M (reference value: 102.66%). The settings on record: dose 1.52 10^-9M.

Assay [8] concerns the target Histone deacetylase 4 (Homo sapiens) (UniProt P56524). Put plainly: Inhibition of HDAC4 (unknown origin) assessed as residual activity at 1 x 10^-5M (reference value: 98.90%). As to conditions: dose 1.0 10^-5M.
Assay [9] addresses T3, Histone deacetylase 1. Briefly: Inhibition of HDAC1 (unknown origin) using p53 residues 379 to 382 [RHKK(Ac)] as fluorogenic substrate assessed as residual activity at 4.57 x 10^-9M (reference value: 98.06%). As to conditions: dose 4.57 10^-9M.
Assay [10] concerns the target T2, Histone deacetylase 3. Put plainly: Inhibition of HDAC3 (unknown origin) using p53 residues 379 to 382 [RHKK(Ac)] as fluorogenic substrate assessed as residual activity at 5.08 x 10^-10M (reference value: 103.08%). As to conditions: dose 5.08 10^-10M.
The target of the next assay is Histone deacetylase 2 (Homo sapiens, UniProt Q92769). Put plainly: Inhibition of HDAC2 (unknown origin) assessed as residual activity at 1.52 x 10^-9M (reference value: 99.81%). The settings on record: dose 1.52 10^-9M.
Assay [11] addresses T3, Histone deacetylase 1. Briefly: Inhibition of HDAC1 (unknown origin) using p53 residues 379 to 382 [RHKK(Ac)] as fluorogenic substrate assessed as residual activity at 1.11 x 10^-6M (reference value: 98.06%). As to conditions: dose 1.11 10^-6M.
Another assay concerns HH. Put plainly: cells. In kind it is functional, cell-based. As to conditions: Homo sapiens.
Assay [12] has as its target T4, Histone deacetylase 7 (Homo sapiens). Briefly: Inhibition of HDAC7 (unknown origin) assessed as residual activity at 1.37 x 10^-8M (reference value: 102.66%). The settings on record: dose 1.37 10^-8M.

Broadly, the IC50 is the concentration that gives 50% inhibition. Low readings indicate higher potency, high ones lower potency.

The source made the active and inactive calls. The calls are words filed in the database; no cut-off is given here. Where only a bound is given, the exact number is not on record here.

T2 sequence (O15379 whole entry, the tested form may be a part): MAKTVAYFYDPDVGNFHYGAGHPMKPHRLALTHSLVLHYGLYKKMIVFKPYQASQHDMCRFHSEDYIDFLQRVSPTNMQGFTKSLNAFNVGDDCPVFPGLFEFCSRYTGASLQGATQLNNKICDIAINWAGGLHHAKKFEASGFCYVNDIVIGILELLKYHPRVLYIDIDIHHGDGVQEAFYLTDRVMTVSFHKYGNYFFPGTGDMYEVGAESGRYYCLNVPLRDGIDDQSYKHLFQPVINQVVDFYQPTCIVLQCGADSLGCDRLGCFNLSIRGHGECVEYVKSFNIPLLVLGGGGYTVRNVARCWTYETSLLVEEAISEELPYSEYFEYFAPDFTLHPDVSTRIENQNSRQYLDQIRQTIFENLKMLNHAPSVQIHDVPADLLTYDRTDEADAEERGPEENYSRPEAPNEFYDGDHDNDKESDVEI
T3 sequence (Q13547 whole entry, the tested form may be a part): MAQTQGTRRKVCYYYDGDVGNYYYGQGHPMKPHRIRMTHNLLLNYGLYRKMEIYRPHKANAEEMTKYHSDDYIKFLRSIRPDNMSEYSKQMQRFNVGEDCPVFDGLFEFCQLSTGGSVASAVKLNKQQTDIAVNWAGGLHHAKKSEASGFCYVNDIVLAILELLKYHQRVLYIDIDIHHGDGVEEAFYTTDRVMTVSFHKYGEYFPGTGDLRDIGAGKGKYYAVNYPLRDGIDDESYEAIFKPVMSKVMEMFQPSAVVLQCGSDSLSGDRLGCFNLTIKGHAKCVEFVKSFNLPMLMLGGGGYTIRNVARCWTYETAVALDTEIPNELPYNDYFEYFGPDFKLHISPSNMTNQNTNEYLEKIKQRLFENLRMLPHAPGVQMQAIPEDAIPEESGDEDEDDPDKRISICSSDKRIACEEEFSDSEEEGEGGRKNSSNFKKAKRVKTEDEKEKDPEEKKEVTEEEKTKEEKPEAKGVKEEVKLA
Sequence of Histone deacetylase 2 (Q92769 whole entry, the tested form may be a part): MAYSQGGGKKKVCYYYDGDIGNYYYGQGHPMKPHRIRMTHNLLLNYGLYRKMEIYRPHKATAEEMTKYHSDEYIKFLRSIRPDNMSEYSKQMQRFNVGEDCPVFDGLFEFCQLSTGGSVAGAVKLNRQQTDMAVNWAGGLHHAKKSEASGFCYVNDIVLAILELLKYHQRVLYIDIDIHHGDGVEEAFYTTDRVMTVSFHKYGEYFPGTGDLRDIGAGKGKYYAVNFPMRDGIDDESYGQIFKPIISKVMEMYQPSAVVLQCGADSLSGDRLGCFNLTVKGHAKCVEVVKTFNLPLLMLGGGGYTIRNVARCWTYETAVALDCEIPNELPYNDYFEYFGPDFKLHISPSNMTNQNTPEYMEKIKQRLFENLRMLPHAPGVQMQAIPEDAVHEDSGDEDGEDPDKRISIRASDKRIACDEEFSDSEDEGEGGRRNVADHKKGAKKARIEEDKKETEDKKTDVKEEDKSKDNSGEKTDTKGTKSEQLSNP
Sequence of Histone deacetylase 4 (Homo sapiens) (P56524 whole entry, the tested form may be a part): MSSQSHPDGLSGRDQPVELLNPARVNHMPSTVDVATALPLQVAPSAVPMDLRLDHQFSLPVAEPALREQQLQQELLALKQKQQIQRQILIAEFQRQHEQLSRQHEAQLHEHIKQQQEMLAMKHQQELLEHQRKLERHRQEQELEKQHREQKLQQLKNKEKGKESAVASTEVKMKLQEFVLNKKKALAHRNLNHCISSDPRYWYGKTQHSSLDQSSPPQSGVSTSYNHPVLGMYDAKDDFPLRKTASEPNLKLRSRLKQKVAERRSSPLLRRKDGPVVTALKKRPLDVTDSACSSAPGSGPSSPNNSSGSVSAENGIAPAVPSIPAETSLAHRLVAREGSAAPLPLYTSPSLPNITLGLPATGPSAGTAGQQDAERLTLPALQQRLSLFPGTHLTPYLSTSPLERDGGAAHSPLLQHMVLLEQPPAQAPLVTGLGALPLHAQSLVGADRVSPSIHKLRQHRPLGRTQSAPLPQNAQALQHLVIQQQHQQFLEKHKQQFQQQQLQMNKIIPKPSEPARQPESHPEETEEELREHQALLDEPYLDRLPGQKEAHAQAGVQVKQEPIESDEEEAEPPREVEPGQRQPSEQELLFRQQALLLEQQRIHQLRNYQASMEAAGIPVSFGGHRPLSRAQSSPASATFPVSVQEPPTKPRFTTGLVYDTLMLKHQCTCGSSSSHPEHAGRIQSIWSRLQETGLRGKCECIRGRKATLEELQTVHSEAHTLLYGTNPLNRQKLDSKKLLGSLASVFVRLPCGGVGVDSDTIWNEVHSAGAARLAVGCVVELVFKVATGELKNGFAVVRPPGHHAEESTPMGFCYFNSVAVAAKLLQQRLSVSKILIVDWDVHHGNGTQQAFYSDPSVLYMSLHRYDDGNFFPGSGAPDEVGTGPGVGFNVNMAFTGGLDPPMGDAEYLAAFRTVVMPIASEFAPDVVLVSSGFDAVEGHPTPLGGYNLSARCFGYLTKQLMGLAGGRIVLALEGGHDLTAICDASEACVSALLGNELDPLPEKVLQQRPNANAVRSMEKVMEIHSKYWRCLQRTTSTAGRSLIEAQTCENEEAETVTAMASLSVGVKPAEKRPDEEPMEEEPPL
Sequence of Histone deacetylase 5 (Homo sapiens) (Q9UQL6 whole entry, the tested form may be a part): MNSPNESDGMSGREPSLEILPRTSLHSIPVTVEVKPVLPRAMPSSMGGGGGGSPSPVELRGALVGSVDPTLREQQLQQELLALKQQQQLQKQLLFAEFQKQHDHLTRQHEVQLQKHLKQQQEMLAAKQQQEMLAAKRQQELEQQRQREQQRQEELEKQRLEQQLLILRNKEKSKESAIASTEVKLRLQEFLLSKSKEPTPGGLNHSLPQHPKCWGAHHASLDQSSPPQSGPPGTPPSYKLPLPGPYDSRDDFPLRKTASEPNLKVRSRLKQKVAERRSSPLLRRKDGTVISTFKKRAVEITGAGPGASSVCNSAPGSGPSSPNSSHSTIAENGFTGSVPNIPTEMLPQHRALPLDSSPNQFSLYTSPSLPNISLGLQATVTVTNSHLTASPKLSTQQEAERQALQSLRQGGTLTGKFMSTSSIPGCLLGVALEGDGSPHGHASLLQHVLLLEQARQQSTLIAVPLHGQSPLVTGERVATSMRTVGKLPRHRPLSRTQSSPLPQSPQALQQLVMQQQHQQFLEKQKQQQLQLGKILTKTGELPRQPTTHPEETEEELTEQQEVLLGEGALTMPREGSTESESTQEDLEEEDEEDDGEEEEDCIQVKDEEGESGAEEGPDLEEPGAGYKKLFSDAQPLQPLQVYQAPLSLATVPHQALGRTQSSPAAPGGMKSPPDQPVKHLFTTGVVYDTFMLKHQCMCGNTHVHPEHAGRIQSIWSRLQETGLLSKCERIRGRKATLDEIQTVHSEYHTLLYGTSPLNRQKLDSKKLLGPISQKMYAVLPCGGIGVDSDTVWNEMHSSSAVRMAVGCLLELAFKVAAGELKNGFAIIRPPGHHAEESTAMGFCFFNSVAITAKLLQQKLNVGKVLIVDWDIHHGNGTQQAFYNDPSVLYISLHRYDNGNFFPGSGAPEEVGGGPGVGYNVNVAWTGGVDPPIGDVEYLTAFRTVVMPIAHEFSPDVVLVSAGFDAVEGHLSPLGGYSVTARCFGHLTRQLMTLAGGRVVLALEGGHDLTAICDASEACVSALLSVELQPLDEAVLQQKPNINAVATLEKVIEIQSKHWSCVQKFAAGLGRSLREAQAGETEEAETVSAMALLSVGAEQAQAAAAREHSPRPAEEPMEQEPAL
Description for FaDu: Antiproliferative activity against human FaDu cells assessed as inhibition of cell growth by MTT assay
Description for HH: Antiproliferative activity against human HH cells assessed as inhibition of cell growth by MTT assay

As to `NC(=O)c1cccc2[nH]c(-c3ccc(NCc4ccc(C(=O)Nc5ccccc5N)cc4)cc3)nc12`, the Activity was determined as 97.3% in [1]; 82.1% in assay [2]; 97.7% at Histone deacetylase 3 [3]; 12.8% on Histone deacetylase 3 [4]; 96.2% in assay [5]; 12.3% at Histone deacetylase 1 [6]. The Activity in [7] stood at 103%; in assay [8], 127%; on Histone deacetylase 1 [9], 88.7%; at Histone deacetylase 3 [10] it was 107%; on Histone deacetylase 2, 98.2%; at Histone deacetylase 1 [11], 11%. For the same compound, the Activity in assay [12] came to 103%. The IC50 in the assay on FaDu is above 10 µM; with HH, 1.01 µM. In addition, in the assay with HL-60, the outcome was Active.

These data come from ChEMBL document CHEMBL5550160, “Leveraging a rationally designed veliparib-based anilide eliciting anti-leukemic effects for the design of pH-responsive polymer nanoformulation” (Eur J Med Chem, 2024).
